Laboratory results reported in patent publication US20250296938A1, “Compounds that Interact with the Ras Superfamily for the Treatment of Cancers, Inflammatory Diseases, Rasopathies, and Fibrotic Disease” (SHY Therapeutics, LLC, priority 2018, published 2025).
Like-named read-outs stand apart in the source and are kept apart here.

How the values were obtained:
Assay in all cases: Ras GTP binding domain inhibition assay (Cy3-GTP/Cy5-GTP competition)
[1] = biological target: Rho-A (Homo sapiens, UniProt P61586)
Method in brief: (§1)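 First, His-tagged protein is coated on nickel wells overnight at 4 °C. Next, compound (20 μM single point or serial dilution) is added for 3 h at room temperature, with or without Sos exchange factor in the last hour. Finally, 100 nM labelled GTP binds for 45 min and retained signal is measured.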

[2] = biological target: T1, KRas G12D mutant (Homo sapiens, UniProt P01116, G12D); details: at 20 μM
T1 construct: fused on or other part: His tag, used for capture on nickel-coated plates
Method in brief: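 Ni-plate immobilised His-Ras, overnight 4 °C; cpd 20 μM (or dilution series for IC50), 1% DMSO, 3 h RT; optional His-Sos […] last hour; Cy3- or Cy5-GTP 100 nM, 45 min RT; 3× wash; bound fluorescence read.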

[3] = biological target: Rac-1 (Homo sapiens, UniProt P63000)
Method in brief: as §1

[4] = with SOS, read-out: Rho-A + SOS: % inh.
[5] = without SOS, read-out: Rho-A: % inh.
[6] = with SOS, read-out: KRas G12D mutant + SOS: % inh.
[7] = without SOS, read-out: KRas G12D mutant: % inh.
[8] = with SOS, read-out: Rac-1 + SOS: % inh.
[9] = without SOS, read-out: Rac-1: % inh.

| Structure (SMILES) | inhibition at 20 µM [1, 4] | inhibition at 20 µM [1, 5] | inhibition at 20 µM [2, 6] | inhibition at 20 µM [2, 7] | inhibition at 20 µM [3, 8] | inhibition at 20 µM [3, 9] | Rho-A + SOS: % inh. ([1]; at 20 μM, with SOS) | Rho-A: % inh. ([1]; at 20 μM, without SOS) | KRas G12D mutant: % inh. ([2]; without SOS) | Rac-1 + SOS: % inh. ([3]; at 20 μM, with SOS) | Rac-1: % inh. ([3]; at 20 μM, without SOS) |
| --- | --- | --- | --- | --- | --- | --- | --- | --- | --- | --- | --- |
| CCOC1CCN(c2nc(-c3nccn3C)nc3sc(-c4ccn(C)n4)c(-c4ccccc4)c23)C1 (stereo not drawn) | 0% | 26 to 50% | 26 to 50% | 26 to 50% | 26 to 50% | 1 to 25% | – | – | – | – | – |
| COC(=O)c1nc(-c2nccn2C)nc(O)c1O [drawing 959] | 51 to 75% | 1 to 25% | 26 to 50% | 51 to 75% | 51 to 75% | 76 to 100% | – | – | – | – | – |
| COC1CCN(c2nc(-c3nccn3C)nc3sc(-c4ccn(C)n4)c(-c4ccccc4)c23)C1 (stereo not drawn) [drawing 998] | 1 to 25% | 0% | 1 to 25% | 1 to 25% | 26 to 50% | 26 to 50% | – | – | – | – | – |
| COc1ccc(-c2c(-c3ccn(C)n3)sc3nc(-c4nccn4C)nc(N4CCC(OC)C4)c23)cc1 (stereo not drawn) [drawing 1003] | 26 to 50% | 0% | 1 to 25% | 0% | 0% | 0% | – | – | – | – | – |
| COCCNc1nc(-c2cn(C)cn2)nc2sc(-c3ccccc3Cl)c(-c3ccc(OC)cc3)c12 [drawing 1008] | 0% | 0% | 76 to 100% | 26 to 50% | 26 to 50% | 26 to 50% | – | – | – | – | – |
| COc1cccc(Oc2nc(-c3ccccn3)nc(O)c2OC)c1 [drawing 936] | 51 to 75% | 51 to 75% | 51 to 75% | 76 to 100% | 76 to 100% | 76 to 100% | – | – | – | – | – |
| Cn1ccc(-c2sc3nc(-c4nccn4C)nc(N4CCC5(CCOC5)C4)c3c2-c2ccccc2)n1 (stereo not drawn) [drawing 992] | 76 to 100% | 0% | 1 to 25% | 26 to 50% | 26 to 50% | 26 to 50% | – | – | – | – | – |
| Cn1ccnc1-c1nc(O)c(O)c(C(=O)N2CCCC2)n1 [drawing 963] | 51 to 75% | 1 to 25% | 1 to 25% | 26 to 50% | 26 to 50% | 51 to 75% | – | – | – | – | – |
| Oc1nc(-c2cn(-c3ccccc3)cn2)nc2c(-c3ccccn3)csc12 [drawing 982] | 26 to 50% | 0% | 1 to 25% | 1 to 25% | 1 to 25% | 26 to 50% | – | – | – | – | – |
| COC1CCN(c2nc(-c3nccn3C)nc3sc(-c4cccnc4)c(-c4ccccc4)c23)C1 (stereo not drawn) [drawing 979] | 51 to 75% | 51 to 75% | 51 to 75% | 51 to 75% | 51 to 75% | 76 to 100% | – | – | – | – | – |
| COCCCNc1nc(-c2nccn2C)nc2sc(-c3ccn(C)n3)c(-c3ccccc3)c12 [drawing 1001] | 0% | 0% | 26 to 50% | 1 to 25% | 26 to 50% | 1 to 25% | – | – | – | – | – |
| COC1CCN(c2nc(-c3nccn3C)nc3sc(-c4cnc(C5CC5)o4)c(-c4ccccc4)c23)C1 (stereo not drawn) [drawing 977] | 51 to 75% | 26 to 50% | 51 to 75% | 51 to 75% | 1 to 25% | 1 to 25% | – | – | – | – | – |
| COCCNc1nc(-c2nccn2C)nc2sc(-c3cccc(OC)c3Cl)c(-c3ccc(OC)cc3)c12 [drawing 1009] | 26 to 50% | 26 to 50% | 51 to 75% | 1 to 25% | 51 to 75% | 26 to 50% | – | – | – | – | – |
| CO[C@@H]1CCC(Nc2nc(-c3nccn3C)nc3sc(-c4ccn(C)n4)c(-c4ccccc4)c23)C1 (stereo partly drawn) [drawing 994] | 76 to 100% | 0% | 26 to 50% | 26 to 50% | 26 to 50% | 26 to 50% | – | – | – | – | – |
| COc1cccc(-c2sc3nc(-c4nccn4C)nc(N4CCC(OC)C4)c3c2-c2ccccc2)c1F.Cl (stereo not drawn) [drawing 973] | – | – | 51 to 75% | – | – | – | C (51-75% inhibition) | A (1-25% inhibition) | C (51-75% inhibition) | 0 (0% inhibition) | A (1-25% inhibition) |
| O=C(c1nc(-c2ccccn2)nc(O)c1O)N1CCc2ccccc2C1 [drawing 967] | 76 to 100% | 76 to 100% | 26 to 50% | 51 to 75% | 51 to 75% | 76 to 100% | – | – | – | – | – |
| COCCNc1nc(-c2cn(C)cn2)nc2sc(-c3cc(OC)ccc3Cl)c(-c3ccc(OC)cc3)c12 [drawing 930] | 26 to 50% | 51 to 75% | 26 to 50% | 26 to 50% | 51 to 75% | 51 to 75% | – | – | – | – | – |
| CN(Cc1ccccc1)C(=O)c1nc(-c2ccccn2)nc(O)c1O [drawing 934] | 51 to 75% | 51 to 75% | 26 to 50% | 26 to 50% | 26 to 50% | 51 to 75% | – | – | – | – | – |
| COCC(C)Nc1nc(-c2nccn2C)nc2sc(-c3ccccc3Cl)c(-c3cscn3)c12 (stereo not drawn) [drawing 989] | 26 to 50% | 26 to 50% | 51 to 75% | 51 to 75% | 26 to 50% | 26 to 50% | – | – | – | – | – |
| Cn1ccc(-c2sc3nc(-c4nccn4C)nc(NC4CCOCC4)c3c2-c2ccccc2)n1 [drawing 997] | 51 to 75% | 0% | 1 to 25% | 1 to 25% | 26 to 50% | 26 to 50% | – | – | – | – | – |

Results, then the molecule that gave them:

| inhibition at 20 µM [1, 4] | inhibition at 20 µM [1, 5] | inhibition at 20 µM [2, 6] | inhibition at 20 µM [2, 7] | inhibition at 20 µM [3, 8] | inhibition at 20 µM [3, 9] | Rho-A + SOS: % inh. ([1]; at 20 μM, with SOS) | Rho-A: % inh. ([1]; at 20 μM, without SOS) | KRas G12D mutant: % inh. ([2]; without SOS) | Rac-1 + SOS: % inh. ([3]; at 20 μM, with SOS) | Rac-1: % inh. ([3]; at 20 μM, without SOS) | Structure (SMILES) |
| --- | --- | --- | --- | --- | --- | --- | --- | --- | --- | --- | --- |
| 51 to 75% | 51 to 75% | 51 to 75% | 51 to 75% | 76 to 100% | 51 to 75% | – | – | – | – | – | COCCNC(=O)c1sc2nc(-c3nccn3C)nc(N[C@H]3C[C@@H](OC)C3)c2c1-c1ccccc1 [drawing 1056] |
| 76 to 100% | 76 to 100% | 51 to 75% | 76 to 100% | 51 to 75% | 51 to 75% | – | – | – | – | – | COc1cccc(-c2sc3nc(-c4nccn4C)nc(NC4CCC(OC)C4)c3c2C)c1F (stereo not drawn) [drawing 1028] |
| 0% | 0% | 76 to 100% | 51 to 75% | 26 to 50% | 1 to 25% | – | – | – | – | – | COCCNc1nc(-c2nccn2C)nc2sc(-c3cccc(OC)c3)c(-c3ccc(OC)cc3)c12 [drawing 1010] |
| 51 to 75% | 51 to 75% | 51 to 75% | 26 to 50% | 51 to 75% | 51 to 75% | – | – | – | – | – | COc1cccc(-c2sc3nc(-c4nccn4C)nc(N[C@H]4C[C@@H](OC)C4)c3c2-c2ccccc2)c1F [drawing 1026] |
| 26 to 50% | 51 to 75% | 51 to 75% | 26 to 50% | 51 to 75% | 51 to 75% | – | – | – | – | – | COC1CCC(Nc2nc(-c3nccn3C)nc3sc(-c4cccc5[nH]ncc45)c(C)c23)C1 (stereo not drawn) [drawing 1030] |
| 1 to 25% | 26 to 50% | 26 to 50% | 1 to 25% | 1 to 25% | 1 to 25% | – | – | – | – | – | COCCNc1nc(-c2nccn2C)nc2sc(-c3cc(OC)ccc3Cl)c(-c3ccc(OC)cc3)c12 [drawing 1012] |
| 0% | 0% | 76 to 100% | 26 to 50% | 26 to 50% | 1 to 25% | – | – | – | – | – | COCCNc1nc(-c2nccn2C)nc2sc(-c3ccccc3Cl)c(-c3ccc(OC)cc3)c12 [drawing 1011] |
| 76 to 100% | 76 to 100% | 76 to 100% | 51 to 75% | 76 to 100% | 76 to 100% | – | – | – | – | – | Cc1c(-c2ccn(C)n2)sc2nc(-c3nccn3C)nc(NCCCC(=O)N(C)C)c12 [drawing 1052] |
| 26 to 50% | 26 to 50% | 1 to 25% | 1 to 25% | 51 to 75% | 26 to 50% | – | – | – | – | – | COc1c(F)cccc1-c1sc2nc(-c3nccn3C)nc(NC3CCC(OC)C3)c2c1-c1ccccc1 (stereo not drawn) [drawing 1021] |
| 76 to 100% | 76 to 100% | 51 to 75% | 51 to 75% | 51 to 75% | 51 to 75% | – | – | – | – | – | CO[C@H]1C[C@@H](Nc2nc(-c3nccn3C)nc3sc(-c4ccn(C)n4)c(C)c23)C1 [drawing 1049] |
| 76 to 100% | 26 to 50% | 51 to 75% | 51 to 75% | 51 to 75% | 76 to 100% | – | – | – | – | – | COC1CCN(C(=O)c2sc3nc(-c4nccn4C)nc(N[C@H]4C[C@@H](OC)C4)c3c2-c2ccccc2)C1 (stereo partly drawn) [drawing 1058] |
